Results taken from ChEMBL document CHEMBL3351559, “Spectroscopic investigations of the binding mechanisms between antimicrobial peptides and membrane models of Pseudomonas aeruginosa and Klebsiella pneumoniae” (2014).
In brackets after ≈: the same amount, converted by molar mass. Activity calls are given as the source filed them. No cut-off for these calls is given here. *1 amine or outer side, *2 acyl side, *3 side chain or, on linkers, in order; H or OH if unused. Where a SMILES comes first, the peptide text is derived from it. [ ]: non-standard residue; d: D form. ξ: configuration not given here. Phe(4-NO2) = N[C@@H](Cc1ccc([N+](=O)[O-])cc1)C(=O)O; Pro(3ξ,4ξ-(CH2)4) = O=C(O)[C@H]1NCC2CCCCC21; X1 = O=C([C@H]1C2CCCCC2CN1[*:1])[*:2]; Tic = O=C(O)[C@@H]1Cc2ccccc2CN1; dTic = O=C(O)[C@H]1Cc2ccccc2CN1; dOrn = NCCC[C@@H](N)C(=O)O; Dab = NCC[C@H](N)C(=O)O; βAla = NCCC(=O)O

Tests used:
[1] = system: Lipopolysaccharide (LPS); assay: Binding affinity to Klebsiella pneumoniae lipopolysaccharide incorporated into 75% POPC/20% POPE/5% POPG liposomes by Far-UV circular dichroism spectroscopy; settings: Liposome
[2] = system: Lipopolysaccharide (LPS); assay: Binding affinity to SUV consisting Klebsiella pneumoniae lipopolysaccharide by CD spectroscopy
[3] = system: Lipopolysaccharide (LPS); assay: Binding affinity to Klebsiella pneumoniae lipopolysaccharide assessed as normalized peak area of proton resonances in region of 1.5 to 0.5 ppm by […] relative to untreated control
[4] = system: Lipopolysaccharide (LPS); assay: Binding affinity to Klebsiella pneumoniae lipopolysaccharide incorporated 75% POPC/20% POPE/5% POPG liposome by Far-UV circular dichroism spectroscopy
[5] = system: Lipopolysaccharide (LPS); assay: Binding affinity to Klebsiella pneumoniae lipopolysaccharide at 0.1 mg by [1H] NMR spectroscopy
[6] = system: Lipopolysaccharide (LPS); assay: Binding affinity to Klebsiella pneumoniae lipopolysaccharide incorporated into phospholipid 75% POPC/20% POPE/5% POPG liposomes by Far-UV circular dichroism spectroscopy
[7] = system: Lipopolysaccharide (LPS); assay: Binding affinity to Pseudomonas aeruginosa lipopolysaccharide at 0.1 mg by [1H] NMR spectroscopy
[8] = system: Lipopolysaccharide (LPS); assay: Binding affinity to SUV consisting Pseudomonas aeruginosa lipopolysaccharide by CD spectroscopy
[9] = system: Pseudomonas aeruginosa; assay: Antimicrobial activity against Pseudomonas aeruginosa PAO1; format: functional; settings: for MIC: Pseudomonas aeruginosa, PAO1
[10] = system: Klebsiella pneumoniae; assay: Antimicrobial activity against Klebsiella pneumoniae BAMC 07-18; format: functional; settings: for MIC: Klebsiella pneumoniae, BAMC 07-18
[11] = system: Lipopolysaccharide (LPS); assay: Binding affinity to Pseudomonas aeruginosa lipopolysaccharide incorporated into 59% POPC/20% POPE/21% POPG by Far-UV circular dichroism spectroscopy
[12] = system: Lipopolysaccharide (LPS); assay: Binding affinity to Pseudomonas aeruginosa lipopolysaccharide incorporated into 59% POPC/20% POPE/21% POPG liposomes by Far-UV circular dichroism spectroscopy; settings: Liposome
[13] = system: Lipopolysaccharide (LPS); assay: Binding affinity to Pseudomonas aeruginosa lipopolysaccharide assessed as normalized peak area of proton resonances in region of 1.5 to 0.5 ppm by […] relative to untreated control
[14] = system: Lipopolysaccharide (LPS); assay: Binding affinity to Pseudomonas aeruginosa lipopolysaccharide incorporated into 80% POPC/20% POPG by Far-UV circular dichroism spectroscopy

Structure (SMILES)	Activity [1]	Activity [2]	Activity [3] [%]	Activity [4]	Activity [5]	Activity [6]	Activity [7]	Activity [8]	MBC [9] [µM]	MIC [9] [µM]	MBC [10] [µM]	MIC [10] [µM]	Activity [11]	Activity [12]	Activity [13] [%]	Activity [14]
CC(=O)NCC(=O)N[C@@H](Cc1ccccc1)C(=O)N1Cc2ccccc2C[C@H]1C(=O)N1CC2CCCCC2[C@H]1C(=O)NCC(=O)N[C@@H](CCCCN)C(=O)N1Cc2ccccc2C[C@H]1C(=O)N1CC2CCCCC2[C@H]1C(=O)NCC(=O)N[C@@H](Cc1ccccc1)C(=O)N1Cc2ccccc2C[C@H]1C(=O)N1CC2CCCCC2[C@H]1C(=O)NCC(=O)N[C@@H](CCCCN)C(=O)N1Cc2ccccc2C[C@H]1C(=O)N[C@@H](CCCCN)C(=O)N[C@@H](CCCCN)C(=O)N[C@@H](CCCCN)C(=O)N[C@@H](CCCCN)C(N)=O (stereo partly drawn) (Ac-GF[Tic][Pro(3ξ,4ξ-(CH2)4)]GK[Tic][Pro(3ξ,4ξ-(CH2)4)]GF[Tic][Pro(3ξ,4ξ-(CH2)4)]GK[Tic]KKKK-NH2)	Active	Active	81	Active	Active	Active	Active	Active	40 (≈ 97.6 µg/mL)	40 (≈ 97.6 µg/mL)	40 (≈ 97.6 µg/mL)	40 (≈ 97.6 µg/mL)	Active	Active	33	Active
CC(=O)NCC(=O)N[C@@H](Cc1ccccc1)C(=O)N1Cc2ccccc2C[C@H]1C(=O)N1CC2CCCCC2[C@H]1C(=O)NCC(=O)N[C@@H](CCCNC(=N)N)C(=O)N1Cc2ccccc2C[C@H]1C(=O)N1CC2CCCCC2[C@H]1C(=O)NCC(=O)N[C@@H](Cc1ccccc1)C(=O)N1Cc2ccccc2C[C@H]1C(=O)N1CC2CCCCC2[C@H]1C(=O)NCC(=O)N[C@@H](CCCNC(=N)N)C(=O)N1Cc2ccccc2C[C@H]1C(=O)N[C@@H](CCCNC(=N)N)C(=O)N[C@@H](CCCNC(=N)N)C(=O)N[C@@H](CCCNC(=N)N)C(=O)N[C@@H](CCCNC(=N)N)C(N)=O (stereo partly drawn) (Ac-GF[Tic][Pro(3ξ,4ξ-(CH2)4)]GR[Tic][Pro(3ξ,4ξ-(CH2)4)]GF[Tic][Pro(3ξ,4ξ-(CH2)4)]GR[Tic]RRRR-NH2)	Active	Active	81	Active	Active	Active	Active	Active	> 100	38.4 (≈ 100 µg/mL)	38.4 (≈ 100 µg/mL)	19.1 (≈ 49.8 µg/mL)	Active	Active	39	Active
CC(=O)NCC(=O)N[C@@H](Cc1ccccc1)C(=O)N1Cc2ccccc2C[C@H]1C(=O)N1CC2CCCCC2[C@H]1C(=O)NCC(=O)N[C@@H](CCN)C(=O)N1Cc2ccccc2C[C@H]1C(=O)N1CC2CCCCC2[C@H]1C(=O)NCC(=O)N[C@@H](Cc1ccccc1)C(=O)N1Cc2ccccc2C[C@H]1C(=O)N1CC2CCCCC2[C@H]1C(=O)NCC(=O)N[C@@H](CCN)C(=O)N1Cc2ccccc2C[C@H]1C(=O)N[C@@H](CCN)C(=O)N[C@@H](CCN)C(=O)N[C@@H](CCN)C(=O)N[C@@H](CCN)C(N)=O (stereo partly drawn) (Ac-GF[Tic][Pro(3ξ,4ξ-(CH2)4)]G[Dab][Tic][Pro(3ξ,4ξ-(CH2)4)]GF[Tic][Pro(3ξ,4ξ-(CH2)4)]G[Dab][Tic][Dab][Dab][Dab][Dab]-NH2)	Active	Active	89	Active	Active	Active	Active	Active	11 (≈ 25 µg/mL)	5.5 (≈ 12.5 µg/mL)	5.5 (≈ 12.5 µg/mL)	5.5 (≈ 12.5 µg/mL)	Active	Active	29	Active
CC(=O)NCC(=O)N[C@@H](Cc1ccccc1)C(=O)N1Cc2ccccc2C[C@H]1C(=O)N1CC2CCCCC2[C@@H]1C(=O)NCC(=O)N[C@H](CCCN)C(=O)N1Cc2ccccc2C[C@@H]1C(=O)N1CC2CCCCC2[C@H]1C(=O)NCC(=O)N[C@H](Cc1ccccc1)C(=O)N1Cc2ccccc2C[C@@H]1C(=O)N1CC2CCCCC2[C@@H]1C(=O)NCC(=O)N[C@H](CCCN)C(=O)N1Cc2ccccc2C[C@@H]1C(=O)N[C@H](CCCN)C(=O)N[C@H](CCCN)C(=O)N[C@H](CCCN)C(=O)N[C@H](CCCN)C(N)=O (stereo partly drawn) (Ac-GF[Tic][X1]G[dOrn][dTic][Pro(3ξ,4ξ-(CH2)4)]G[dF][dTic][X1]G[dOrn][dTic][dOrn][dOrn][dOrn][dOrn]-NH2)	Active	Active	93	Active	Active	Active	Active	Active	21 (≈ 49.5 µg/mL)	21 (≈ 49.5 µg/mL)	21 (≈ 49.5 µg/mL)	21 (≈ 49.5 µg/mL)	Active	Active	36	Active
CC(=O)NCC(=O)N[C@@H](Cc1ccc([N+](=O)[O-])cc1)C(=O)N1Cc2ccccc2C[C@H]1C(=O)N1CC2CCCCC2[C@H]1C(=O)NCC(=O)N[C@@H](CCCCN)C(=O)N1Cc2ccccc2C[C@H]1C(=O)N1CC2CCCCC2[C@H]1C(=O)NCC(=O)N[C@@H](Cc1ccc([N+](=O)[O-])cc1)C(=O)N1Cc2ccccc2C[C@H]1C(=O)N1CC2CCCCC2[C@H]1C(=O)NCC(=O)N[C@@H](CCCCN)C(=O)N1Cc2ccccc2C[C@H]1C(=O)N[C@@H](CCCCN)C(=O)N[C@@H](CCCCN)C(=O)N[C@@H](CCCCN)C(=O)N[C@@H](CCCCN)C(N)=O (stereo partly drawn) (Ac-G[Phe(4-NO2)][Tic][Pro(3ξ,4ξ-(CH2)4)]GK[Tic][Pro(3ξ,4ξ-(CH2)4)]G[Phe(4-NO2)][Tic][Pro(3ξ,4ξ-(CH2)4)]GK[Tic]KKKK-NH2)	Active	Active		Active		Active		Active	39.1 (≈ 99 µg/mL)	19.6 (≈ 49.6 µg/mL)	19.6 (≈ 49.6 µg/mL)	19.6 (≈ 49.6 µg/mL)	Active	Active		Active
CC(=O)NCCC(=O)N[C@@H](Cc1ccccc1)C(=O)N1Cc2ccccc2C[C@H]1C(=O)N1CC2CCCCC2[C@H]1C(=O)NCCC(=O)N[C@@H](CCCCN)C(=O)N1Cc2ccccc2C[C@H]1C(=O)N1CC2CCCCC2[C@H]1C(=O)NCCC(=O)N[C@@H](Cc1ccccc1)C(=O)N1Cc2ccccc2C[C@H]1C(=O)N1CC2CCCCC2[C@H]1C(=O)NCCC(=O)N[C@@H](CCCCN)C(=O)N1Cc2ccccc2C[C@H]1C(=O)N[C@@H](CCCCN)C(=O)N[C@@H](CCCCN)C(=O)N[C@@H](CCCCN)C(=O)N[C@@H](CCCCN)C(N)=O (stereo partly drawn) (Ac-[βAla]F[Tic][Pro(3ξ,4ξ-(CH2)4)][βAla]K[Tic][Pro(3ξ,4ξ-(CH2)4)][βAla]F[Tic][Pro(3ξ,4ξ-(CH2)4)][βAla]K[Tic]KKKK-NH2)	Active	Active		Active		Active		Active	40 (≈ 99.9 µg/mL)	40 (≈ 99.9 µg/mL)	40 (≈ 99.9 µg/mL)	40 (≈ 99.9 µg/mL)	Active	Active		Active
